The source of these data is patent publication US20260062443A1 (ALEXION PHARMACEUTICALS, INC., priority 2022, published 2026).

SMILES strings stand for the structures. A value given as a limit tells only on which side of the number the result lay.

For the assay, the target named is T1, Human complement C1s enzyme (Homo sapiens, UniProt P09871).
T1 sequence (P09871 438-688 limits assumed): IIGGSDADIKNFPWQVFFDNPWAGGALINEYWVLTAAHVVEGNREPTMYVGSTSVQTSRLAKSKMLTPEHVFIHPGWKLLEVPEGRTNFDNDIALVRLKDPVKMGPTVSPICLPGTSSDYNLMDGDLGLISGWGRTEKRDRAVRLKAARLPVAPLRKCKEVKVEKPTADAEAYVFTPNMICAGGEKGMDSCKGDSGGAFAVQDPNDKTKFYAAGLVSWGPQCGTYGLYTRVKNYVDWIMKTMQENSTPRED
T1 sequence (P09871 16-437 partner limits assumed): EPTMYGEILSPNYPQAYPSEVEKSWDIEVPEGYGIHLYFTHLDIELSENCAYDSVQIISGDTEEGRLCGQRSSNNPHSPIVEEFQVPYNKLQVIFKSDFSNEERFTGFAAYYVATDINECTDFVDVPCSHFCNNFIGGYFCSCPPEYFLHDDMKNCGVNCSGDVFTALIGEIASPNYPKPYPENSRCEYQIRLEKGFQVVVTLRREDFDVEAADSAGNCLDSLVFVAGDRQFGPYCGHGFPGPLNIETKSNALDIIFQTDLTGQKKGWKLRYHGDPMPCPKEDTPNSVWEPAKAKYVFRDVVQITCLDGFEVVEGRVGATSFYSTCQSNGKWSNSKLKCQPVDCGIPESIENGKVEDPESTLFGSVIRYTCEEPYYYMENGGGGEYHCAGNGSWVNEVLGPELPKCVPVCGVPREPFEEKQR
Briefly: Human C1s enzyme assay. Type of assay: biochemical. The note with it: human complement C1s enzyme 1.16 nM, substrate Z-L-Lys-SBzl 100 μM, 5 min preincubation; read-out: IC50 (Stars), C1s Inhibiting Activity. In short, it runs like this:
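IC50 from nonlinear regression of reaction rates versus compound concentration, with rates taken from A405 recorded at 30 s intervals over 30 min after adding 100 μM Z-L-Lys-SBzl plus 100 μM DTNB. Enzyme was human C1s purified from serum, 1.16 nM, given 5 min compound preincubation at room temperature, pH 7.5 Tris/1 M NaCl.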
For orientation: IC50 means the concentration that inhibits the measured activity by half. With `O=C(CCCOc1ccccc1)NCC(=O)N1CC2(C[C@H]1C(=O)NCc1cc3cnccc3[nH]1)OCCO2` [Compound 20, (S)-N-((1H-pyrrolo[3,2-c]pyridin-2-yl)methyl)-7-((4-phenoxybutanoyl)glycyl)-1,4-dioxa-7-azaspiro[4.4]nonane-8-carboxamide], the IC50 is < 100 nM.

Take `Cc1ccc(Oc2cccc(C(=O)NCC(=O)N3[C@H]4C[C@@]4(C)C[C@H]3C(=O)NCc3cc4cnccc4[nH]3)c2)c(F)c1` [Compound 315, (1S,3S,5S)-N-((1H-pyrrolo[3,2-c]pyridin-2-yl)methyl)-2-((3-(2-fluoro-4-methylphenoxy)benzoyl)glycyl)-5-methyl-2-azabicyclo[3.1.0]hexane-3-carboxamide]: the IC50 is < 100 nM.

Take `Cc1cc2[nH]c(CNC(=O)[C@@H]3C[C@]4(C)C[C@@H]4N3C(=O)CNC(=O)c3ccc4c(c3)Oc3ccccc3S4)cc2cn1` [Compound 268, (1S,3S,5S)-5-methyl-N-((6-methyl-1H-pyrrolo[3,2-c]pyridin-2-yl)methyl)-2-((phenoxathiine-3-carbonyl)glycyl)-2-azabicyclo[3.1.0]hexane-3-carboxamide]: the IC50 was > 1000 nM.

Consider `C[C@@H](NC(=O)[C@@H]1CC2(CN1C(=O)CN1Cc3ccc(-c4ccc(F)cc4F)cc3C1=O)OCCO2)c1cc2cnccc2[nH]1` [Compound 126, (S)-N-((R)-1-(1H-pyrrolo[3,2-c]pyridin-2-yl)ethyl)-7-(2-(6-(2,4-difluorophenyl)-1-oxoisoindolin-2-yl)acetyl)-1,4-dioxa-7-azaspiro[4.4]nonane-8-carboxamide], for which the IC50 was < 100 nM.

As to `O=C(NCC(=O)N1CC2(C[C@H]1C(=O)NCc1cc3cnccc3[nH]1)OCCO2)c1ccc(C(=O)c2ccccc2)cc1` [Compound 33, (S)-N-((1H-pyrrolo[3,2-c]pyridin-2-yl)methyl)-7-((4-benzoylbenzoyl)glycyl)-1,4-dioxa-7-azaspiro[4.4]nonane-8-carboxamide], the IC50 was < 100 nM.

As for `O=C(NCC(=O)N1CC2(C[C@H]1C(=O)NCc1cc3cnccc3[nH]1)OCCO2)c1ccc(-c2ccccc2)cn1` [Compound 107, (S)-N-((1H-pyrrolo[3,2-c]pyridin-2-yl)methyl)-7-((5-phenylpicolinoyl)glycyl)-1,4-dioxa-7-azaspiro[4.4]nonane-8-carboxamide], the IC50 is < 100 nM.

Regarding `O=C(NCC(=O)N1C[C@H](OC(F)F)C[C@H]1C(=O)NCc1ccc2[nH]ccc2c1)c1ccc2c(c1)Oc1ccccc1S2` [Compound 195, (2S,4R)-N-((1H-indol-5-yl)methyl)-4-(difluoromethoxy)-1-((phenoxathiine-3-carbonyl)glycyl)pyrrolidine-2-carboxamide], the IC50 was > 1000 nM.

Take `C[C@@H](NC(=O)[C@@H]1C[C@](F)(CF)CN1C(=O)CNC(=O)c1ccc2c(c1)-c1ccccc1C2(F)F)c1cc2cnccc2[nH]1` [Compound 86, (2S,4R)-N-((R)-1-(1H-pyrrolo[3,2-c]pyridin-2-yl)ethyl)-1-((9,9-difluoro-9H-fluorene-3-carbonyl)glycyl)-4-fluoro-4-(fluoromethyl)pyrrolidine-2-carboxamide]: the half-maximal inhibitory concentration (IC50) was in the range of 100 to 1000 nM.

Consider `Cc1ccc(Oc2cccc(C(=O)NCC(=O)N3CCC[C@H]3C(=O)NCc3cc4cnccc4[nH]3)c2)c(F)c1` [Compound 310, (S)-N-((1H-pyrrolo[3,2-c]pyridin-2-yl)methyl)-1-((3-(2-fluoro-4-methylphenoxy)benzoyl)glycyl)pyrrolidine-2-carboxamide], for which the IC50 was < 100 nM.

Take `CC(c1cccc(F)c1)c1ccc(C(=O)NCC(=O)N2CC3(C[C@H]2C(=O)NCc2cc4cnccc4[nH]2)OCCO3)s1` (stereo partly drawn) [Compound 357, (8S)-N-((1H-pyrrolo[3,2-c]pyridin-2-yl)methyl)-7-((5-(1-(3-fluorophenyl)ethyl)thiophene-2-carbonyl)glycyl)-1,4-dioxa-7-azaspiro[4.4]nonane-8-carboxamide]: the IC50 lay in the range of 100 to 1000 nM.
